In PubChem BioAssay AID328 (DTP/NCI, 2004):
Several values for one entry are separate records, joined by “and”; a condition that tells them apart may be missing. Equal values may be shown once. Inconclusive results and toxic doses are left out.

Tested on: BDF1 mice, P388 leukemia ip, median survival T/C
Assay: NCI In Vivo Anticancer Drug Screen. Data for tumor model P388 Leukemia (intraperitoneal) in B6D2F1 (BDF1) mice
Settings: endpoint: median survival time, higher = longer survival
Outline: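 Steps: implant the tumour, treat one group with compound and another with vehicle, record survival, then divide treated by control.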

[1] = dose: 200.0 mg/kg/injection, schedule: Q04DX003 (ip), vehicle: saline
[2] = dose: 50.0 mg/kg/injection, schedule: Q01DX009 (ip), vehicle: saline with Tween-80
[3] = dose: 100.0 mg/kg/injection, schedule: Q01DX009 (ip), vehicle: saline with Tween-80
[4] = dose: 100.0 mg/kg/injection, schedule: Q04DX003 (ip), vehicle: saline with Tween-80
[5] = dose: 200.0 mg/kg/injection, schedule: Q04DX003 (ip), vehicle: saline with Tween-80
[6] = dose: 400.0 mg/kg/injection, schedule: Q04DX003 (ip), vehicle: saline with Tween-80
[7] = dose: 100.0 mg/kg/injection, schedule: Q01DX009 (ip), vehicle: Klucel (hydroxypropylcellulose) (HPC)
[8] = dose: 200.0 mg/kg/injection, schedule: Q01DX009 (ip), vehicle: Klucel (hydroxypropylcellulose) (HPC)
[9] = dose: 200.0 mg/kg/injection, schedule: Q01DX009 (ip), vehicle: saline with Tween-80
[10] = dose: 12.5 mg/kg/injection, schedule: Q04DX003 (ip), vehicle: saline
[11] = dose: 25.0 mg/kg/injection, schedule: Q04DX003 (ip), vehicle: saline
[12] = dose: 50.0 mg/kg/injection, schedule: Q01DX009 (ip), vehicle: saline

## O=C(O)CC(O)(CC(=O)O)C(=O)O.[Ga]
dose: 75.0 mg/kg/injection, schedule: Q01DX009 (ip), vehicle: saline
  T/C: 114 % of control
dose: 112.5 mg/kg/injection, schedule: Q01DX009 (ip), vehicle: saline
  T/C: 90 % of control
dose: 132.0 mg/kg/injection, schedule: Q04DX003 (ip), vehicle: saline
  T/C: 115 % of control
[1]
  T/C: 110 % of control
dose: 300.0 mg/kg/injection, schedule: Q04DX003 (ip), vehicle: saline
  T/C: 110 % of control

## O=C(O)O.[Ce]
[2]
  T/C: 107 % of control
[3]
  T/C: 107 % of control

## O=C(Nc1ccc(F)cc1)c1ccc(C(=O)Nc2ccc(F)cc2)cc1
[4]
  T/C: 108 % of control
[5]
  T/C: 91 % of control
[6]
  T/C: 91 % of control

## Cc1cc(Cl)ccc1NC(=O)c1ccc(Cl)cc1
dose: 75.0 mg/kg/injection, schedule: Q01DX009 (ip), vehicle: Klucel (hydroxypropylcellulose) (HPC)
  T/C: 113 % of control
dose: 150.0 mg/kg/injection, schedule: Q01DX009 (ip), vehicle: Klucel (hydroxypropylcellulose) (HPC)
  T/C: 95 % of control
dose: 300.0 mg/kg/injection, schedule: Q01DX009 (ip), vehicle: Klucel (hydroxypropylcellulose) (HPC)
  T/C: 100 % of control

## CCCCCCCCCCCCCCCCCC(=O)[O][Hg][c]1ccccc1
dose: 5.0 mg/kg/injection, schedule: Q01DX009 (ip), vehicle: Klucel (hydroxypropylcellulose) (HPC)
  T/C: 100 % of control
dose: 5.5 mg/kg/injection, schedule: Q01DX001 (ip), vehicle: Klucel (hydroxypropylcellulose) (HPC)
  T/C: 104 % of control
dose: 10.0 mg/kg/injection, schedule: Q01DX009 (ip), vehicle: Klucel (hydroxypropylcellulose) (HPC)
  T/C: 104 % of control
dose: 10.0 mg/kg/injection, schedule: Q01DX009 (ip), vehicle: other
  T/C: 115 % of control
dose: 11.0 mg/kg/injection, schedule: Q01DX001 (ip), vehicle: Klucel (hydroxypropylcellulose) (HPC)
  T/C: 95 % of control
dose: 14.0 mg/kg/injection, schedule: Q04DX003 (ip), vehicle: Klucel (hydroxypropylcellulose) (HPC)
  T/C: 115 % of control
dose: 20.0 mg/kg/injection, schedule: Q01DX009 (ip), vehicle: Klucel (hydroxypropylcellulose) (HPC)
  T/C: 109 % of control
dose: 22.0 mg/kg/injection, schedule: Q04DX003 (ip), vehicle: Klucel (hydroxypropylcellulose) (HPC)
  T/C: 120 % of control

## CC(C)NC1(C(N)=O)CCN(Cc2ccccc2)CC1
dose: 50.0 mg/kg/injection, schedule: Q01DX009 (ip), vehicle: Klucel (hydroxypropylcellulose) (HPC)
  T/C: 95 % of control
[7]
  T/C: 91 % of control
[8]
  T/C: 95 % of control

## O=C(O)c1ccc(SSc2ccc(C(=O)O)cn2)nc1
[7]
  T/C: 92 % of control and 104 % of control
dose: 100.0 mg/kg/injection, schedule: Q04DX003 (ip), vehicle: Klucel (hydroxypropylcellulose) (HPC)
  T/C: 100 % of control
dose: 100.0 mg/kg/injection, schedule: Q04DX003 (ip), vehicle: saline
  T/C: 118 % of control
[8]
  T/C: 109 % of control and 119 % of control
dose: 200.0 mg/kg/injection, schedule: Q04DX003 (ip), vehicle: Klucel (hydroxypropylcellulose) (HPC)
  T/C: 100 % of control
[1]
  T/C: 109 % of control
dose: 400.0 mg/kg/injection, schedule: Q01DX009 (ip), vehicle: Klucel (hydroxypropylcellulose) (HPC)
  T/C: 107 % of control and 109 % of control
dose: 400.0 mg/kg/injection, schedule: Q04DX003 (ip), vehicle: Klucel (hydroxypropylcellulose) (HPC)
  T/C: 100 % of control
dose: 400.0 mg/kg/injection, schedule: Q04DX003 (ip), vehicle: saline
  T/C: 113 % of control

## COc1cc2c(cc1OC)C(c1c(-c3c(Cl)cccc3Cl)noc1C)=NCC2
[2]
  T/C: 99 % of control
[3]
  T/C: 92 % of control
[9]
  T/C: 106 % of control

## CCCCCCNC(=S)/N=C(\N)n1nc(C)cc1C
[2]
  T/C: 109 % of control
[3]
  T/C: 99 % of control
[9]
  T/C: 112 % of control

## O=N[O-].[Co].[NH2-].[NH2-].[NH2-].[NH2-].[NH2-]
[10]
  T/C: 95 % of control
[11]
  T/C: 100 % of control
dose: 50.0 mg/kg/injection, schedule: Q04DX003 (ip), vehicle: saline
  T/C: 100 % of control

## CCCCOCN(COCCCC)c1ccc(C)cc1
[2]
  T/C: 100 % of control
[3]
  T/C: 112 % of control

## COc1ncnc2c1c(C#N)cn2C1OC(CO)C(O)C1O (configuration not stated)
dose: 6.25 mg/kg/injection, schedule: Q01DX009 (ip), vehicle: saline
  T/C: 102 % of control
dose: 12.5 mg/kg/injection, schedule: Q01DX009 (ip), vehicle: saline
  T/C: 102 % of control
dose: 25.0 mg/kg/injection, schedule: Q01DX009 (ip), vehicle: saline
  T/C: 102 % of control
[12]
  T/C: 95 % of control

## Cn1cnc([N+](=O)[O-])c1[Se]c1ncnc2c1c(C#N)cn2C1OC(CO)C(O)C1O (configuration not stated)
dose: 6.25 mg/kg/injection, schedule: Q04DX003 (ip), vehicle: saline
  T/C: 93 % of control
[10]
  T/C: 119 % of control
[11]
  T/C: 102 % of control

## C#CCOc1ccccc(Br)c1=O
dose: 50.0 mg/kg/injection, schedule: Q04DX002 (ip), vehicle: saline with Tween-80
  T/C: 115 % of control
dose: 100.0 mg/kg/injection, schedule: Q04DX002 (ip), vehicle: saline with Tween-80
  T/C: 104 % of control
dose: 200.0 mg/kg/injection, schedule: Q04DX002 (ip), vehicle: saline with Tween-80
  T/C: 106 % of control

## CC1(C)CC(C)(OC(=O)c2ccccc2)[N+]([O-])=N1 (configuration not stated)
dose: 25.0 mg/kg/injection, schedule: Q01DX005 (ip), vehicle: other
  T/C: 108 % of control
dose: 50.0 mg/kg/injection, schedule: Q01DX005 (ip), vehicle: other
  T/C: 117 % of control
dose: 100.0 mg/kg/injection, schedule: Q01DX005 (ip), vehicle: other
  T/C: 99 % of control
dose: 200.0 mg/kg/injection, schedule: Q01DX005 (ip), vehicle: other
  T/C: 101 % of control
dose: 400.0 mg/kg/injection, schedule: Q01DX005 (ip), vehicle: other
  T/C: 108 % of control

## NC(=O)Nc1cc(NC(N)=O)cc(N(CCO)CCO)c1
dose: 50.0 mg/kg/injection, schedule: Q01DX009 (ip), vehicle: water
  T/C: 94 % of control
dose: 100.0 mg/kg/injection, schedule: Q01DX009 (ip), vehicle: water
  T/C: 102 % of control
dose: 100.0 mg/kg/injection, schedule: Q04DX003 (ip), vehicle: water
  T/C: 118 % of control
dose: 200.0 mg/kg/injection, schedule: Q01DX009 (ip), vehicle: water
  T/C: 96 % of control
dose: 200.0 mg/kg/injection, schedule: Q04DX003 (ip), vehicle: water
  T/C: 102 % of control
dose: 400.0 mg/kg/injection, schedule: Q01DX009 (ip), vehicle: water
  T/C: 100 % of control
dose: 400.0 mg/kg/injection, schedule: Q04DX003 (ip), vehicle: water
  T/C: 102 % of control

## CN(C)c1ncnc2c1ncn2C1OC(CO)C(N)C1O (configuration not stated)
dose: 14.0 mg/kg/injection, schedule: Q01DX009 (ip), vehicle: saline
  T/C: 95 % of control
dose: 22.0 mg/kg/injection, schedule: Q01DX009 (ip), vehicle: saline
  T/C: 100 % of control
[12]
  T/C: 150 % of control and 177 % of control

## O=C(O)CC(SC(CC(=O)O)C(F)(F)C(F)(F)C(F)(F)F)C(F)(F)C(F)(F)C(F)(F)F (configuration not stated)
dose: 25.0 mg/kg/injection, schedule: Q01DX009 (ip), vehicle: saline with Tween-80
  T/C: 100 % of control
[2]
  T/C: 110 % of control
[3]
  T/C: 110 % of control

## COc1cccc(C)c1NC1=NCCO1
dose: 1.56 mg/kg/injection, schedule: Q04DX003 (ip), vehicle: saline with Tween-80
  T/C: 117 % of control

## CCO/C=C(\C#N)C(=O)O
[4]
  T/C: 88 % of control
[9]
  T/C: 111 % of control
[5]
  T/C: 88 % of control
dose: 400.0 mg/kg/injection, schedule: Q01DX009 (ip), vehicle: saline with Tween-80
  T/C: 119 % of control
[6]
  T/C: 92 % of control

## Cc1ccc2c(C)c3c(ccc4ccccc43)c[n+]2c1
dose: 1.25 mg/kg/injection, schedule: Q01DX009 (ip), vehicle: Klucel (hydroxypropylcellulose) (HPC)
  T/C: 115 % of control
dose: 1.25 mg/kg/injection, schedule: Q01DX009 (ip), vehicle: saline
  T/C: 115 % of control
dose: 2.5 mg/kg/injection, schedule: Q01DX009 (ip), vehicle: Klucel (hydroxypropylcellulose) (HPC)
  T/C: 120 % of control
dose: 2.5 mg/kg/injection, schedule: Q01DX009 (ip), vehicle: saline
  T/C: 100 % of control
dose: 2.5 mg/kg/injection, schedule: Q04DX003 (ip), vehicle: saline
  T/C: 100 % of control
dose: 5.0 mg/kg/injection, schedule: Q04DX003 (ip), vehicle: saline
  T/C: 104 % of control
dose: 10.0 mg/kg/injection, schedule: Q01DX009 (ip), vehicle: saline
  T/C: 90 % of control
dose: 10.0 mg/kg/injection, schedule: Q04DX003 (ip), vehicle: saline
  T/C: 116 % of control
dose: 20.0 mg/kg/injection, schedule: Q04DX003 (ip), vehicle: saline
  T/C: 120 % of control
